According to US9937198B2, “Multi-functional composition and preparation method and application thereof” (Suzhou Sciscape Bio-Pharmaceutical Technology Co., Ltd., priority 2013, dated 2018):
“And” between values parts separate entries of the source, which are not always exact repeats. Equal entries are not always repeated.

Legend:
Format in all cases: in vivo
ovariectomized rats = test: Osteoporosis amelioration in ovariectomized rats; settings: femur, 13.3 mL/kg once a day for 30 days
Source text: Female SD rats, 250 g to 280 g in body weight, were purchased from Shanghai Sippr-BK Lab Animal Co., Ltd.
(§1) The solutions of Compositions 1 to 7 prepared in this example were used.
After receiving ovariectomy, rats were fed normally for one week. By body weight, the rats were randomly divided into 11 groups, i.e., a blank control group, administration groups 1 to 7 and negative control groups 1 to 3. The rats in administration groups 1 to 7 were intragastrically administered with the solutions of Compositions 1 to 7 respectively at a dose of 13.3 mL/kg body weight while the rats in the blank control group were intragastrically given sterile water for medical use at a dose of 13.3 mL/kg body weight. The rats in negative control groups 1 to 3 were intragastrically given the solution of trehalose (0.15 g/mL), the solution of validamycin (0.3 mg/mL) and the solution of algal polysaccharides (0.15 g/mL) at a dose of 13.3 mL/kg body weight respectively. Administration was conducted once a day and lasted for 30 days. Normal rats were arranged in a normal group and fed normally all the time. Twenty to 30 min post last administration, all rats were killed by cervical vertebrae dislocation, and their femurs were taken out. Then, the bone density and mineral content in the femur were determined.

normal mice [1] = test: Enterocinesia in normal mice (carbon powder movement in small intestine); settings: 13.3 mL/kg intragastric; for Movement distance of carbon powder: carbon powder 20 to 30 min later, killed 15 to 20 min after; for Movement distance of carbon powder/full length of small intestine: normal mice
Protocol: (§2) Male ICR mice, 8 weeks old and 20±2 g in body weight, were purchased from Beijing HFK Bioscience Co., Ltd.
Solutions of Compositions 1 to 7 were used in the experiment.
A suspension of carbon powder of 0.1 g/mL was also used. In particular, 1 g of carbon powder was added to and then suspended evenly in 10 mL of normal saline.
After the mice were fed normally for 3 days, they were given no food but water for 18-24 h. By the body weight, the mice were randomly divided into 11 groups, i.e., a blank control group, administration groups 1 to 7 and negative control groups 1 to 3. The mice in administration groups 1 to 7 were respectively intragastrically administered with the solutions of Compositions 1 to 7 at a dose of 13.3 mL/kg body weight while the mice in the blank control group were intragastrically given sterile water for medical use at a dose of 13.3 mL/kg body weight. The mice in negative control groups 1 to 3 were respectively intragastrically administered with the solution of trehalose (0.15 g/mL), the solution of validamycin (0.3 mg/mL) and the solution of algal polysaccharide (0.15 g/ml) at a dose of 13.3 mL/kg body weight. At 20 to 30 min post administration, all mice were intragastrically given the suspension of carbon powder at a dose of 0.2 mL/10 g body weight. At 15 to 20 min post the administration of the carbon powder suspension, the mice were killed by cervical vertebrae dislocation and then were quickly dissected to separate the small intestines. The movement distance of the carbon powder (the distance measured from the carbon powder at the forefront to the end of the duodenum closer to heart) and the full length of the small intestine were measured.

diabetic mice = test: Reduction of blood glucose in streptozotocin diabetic mice; settings: for Blood glucose level at different time points after administration: 13.3 mL/kg intragastric at 9 am and 9 pm every day; for Blood glucose level before administration: baseline, STZ diabetic mice
Protocol: Male ICR mice, 8 weeks old, 20±2 g in body weight, were purchased from Beijing HFK Bioscience Co., Ltd.
Also, the solutions of Compositions 1-7 were used in this Example.
I. Modeling: Before experiment started, a 0.1 mol/L sodium citrate buffer (pH4.5) was prepared. It was sterilized in an autoclave and then stored in a refrigerator at 4° C. Before the modeling began, this sodium citrate buffer was used to freshly prepare a 10 mg/mL solution of streptozotocin (STZ) in an ice bath. The mice were fed normally for 3 days, and then they were intraperitoneally administered with the freshly prepared STZ solution at a dose of 45 mg/kg for 5 consecutive days once a day.
II. Treatment: After the model was successfully established, the mice had not been administered with streptozotocin solution were arranged in a group, i.e., the normal group, and normally fed. The diabetic mice were randomly divided into 11 groups depending on blood glucose level, the groups being a model group, administration groups 1 to 7 and negative control groups 1 to 3. The mice in administration groups 1 to 7 were respectively intragastrically given the solution of Composition 1 to 7 prepared in this Example at a dose of 13.3 mL/kg body weight. The mice in the model group were intragastrically given sterile water for medical use at a dose of 13.3 mL/kg body weight. The mice in negative control groups 1 to 3 were respectively intragastrically administered with the solution of trehalose (0.15 g/mL), the solution of validamycin (0.3 mg/mL) and the solution of algal polysaccharides (0.15 g/mL) at a dose of 13.3 mL/kg body weight. The administration was conducted at 9 am and 9 pm every day, and blood glucose level was checked by Roche blood glucose meter once every other week for 5 weeks.

normal mice [2] = test: Sleep in normal mice with subdissociative sodium pentobarbital; settings: 13.3 mL/kg intragastric; sodium pentobarbital 15 mg/kg i.p. 20 to 30 min later
Protocol: as §2, §1
After the mice were fed normally for 3 days, they were given no food but water for 18 to 24 h. By body weight, the mice were randomly divided into 11 groups, i.e., a blank control group, administration groups 1 to 7 and negative control groups 1 to 3. The mice in administration groups 1 to 7 were intragastrically administered with the solutions of Compositions 1 to 7 at a dose of 13.3 mL/kg body weight while the mice in the blank control group were intragastrically given sterile water for medical use at a dose of 13.3 mL/kg body weight. The mice in negative control groups 1 to 3 were intragastrically given the solution of trehalose (0.15 g/mL), the solution of validamycin (0.3 mg/mL) and the solution of algal polysaccharides (0.15 g/mL) at a dose of 13.3 mL/kg body weight respectively. Twenty to 30 min post administration, all mice were intraperitoneally injected with sodium pentobarbital at a subdissociative dose (15 mg/kg). The time when the righting reflex disappeared and sleep duration of the mice were recorded.

[3] = system: patients with type-II diabetes; test: Short-term experiment for treatment in human diabetics; settings: for effect on blood glucose level in patients with type-II diabetes, short-term / Blood glucose level after administration: 200 mL oral; for Blood glucose level after administration / Blood glucose level before administration: individual type-II diabetes patients; for Blood glucose level before administration: fasting baseline
Protocol: Six patients with type-II diabetes were fasted overnight and then measured for fasting blood glucose level. Then they were orally administered with 200 mL of the solution of Composition 1, or 200 mL of solution of trehalose (0.15 g/mL), or 200 mL of the solution of validamycin (0.3 mg/mL), or 200 mL of distilled water, as stated in Table 3.3. The blood glucose level in every patient was tested before administration and 30 min, 60 min and 120 min post administration.

Structure (SMILES)	Bone density (ovariectomized rats) [g/cm^2]	Mineral content (ovariectomized rats) [g/cm]	Movement distance of carbon powder (normal mice [1]) [cm]	Movement distance of carbon powder/full length of small intestine (normal mice [1]) [%]	Blood glucose level at different time points after administration (diabetic mice; 1 week) [mmol/L]	Blood glucose level at different time points after administration (diabetic mice; 2 weeks) [mmol/L]	Blood glucose level at different time points after administration (diabetic mice; 3 weeks) [mmol/L]	Blood glucose level at different time points after administration (diabetic mice; 4 weeks) [mmol/L]	Blood glucose level at different time points after administration (diabetic mice; 5 weeks) [mmol/L]	Blood glucose level before administration (diabetic mice) [mmol/L]	Sleep duration (normal mice [2]) [min]	Time when righting reflex disappeared (normal mice [2]) [min]	effect on blood glucose level in patients with type-II diabetes, short-term [3]	other results
OC[C@H]1O[C@H](O[C@H]2O[C@H](CO)[C@@H](O)[C@H](O)[C@H]2O)[C@H](O)[C@@H](O)[C@@H]1O [trehalose]	0.1037 ± 0.0211	0.1245 ± 0.0374	33.6 ± 3.40	71.9 ± 8.20	22.15 ± 2.14	24.50 ± 2.35	25.33 ± 2.15	26.47 ± 2.12	27.16 ± 1.01	18.40 ± 2.07	30.54 ± 2.17	2.49 ± 0.14	significantly raised the blood glucose level	Blood glucose level after administration ([3]; 30 min): 25.5 mmol/L; Blood glucose level after administration ([3]; 60 min): 20.1 mmol/L; Blood glucose level after administration ([3]; 120 min): 17.3 mmol/L; Blood glucose level before administration [3]: 15.3 mmol/L
OCC1=C[C@H](N[C@H]2C[C@H](CO)[C@@H](O[C@@H]3O[C@H](CO)[C@@H](O)[C@H](O)[C@H]3O)[C@H](O)[C@H]2O)[C@H](O)[C@@H](O)[C@@H]1O [validamycin]	0.1063 ± 0.0222	0.1212 ± 0.0311	29.3 ± 2.34	66.3 ± 6.57	20.20 ± 2.11	22.51 ± 2.28	23.57 ± 2.06	23.57 ± 1.07	24.01 ± 1.25	18.27 ± 2.13	29.87 ± 1.58	3.11 ± 0.21	had no influence on blood glucose level	Blood glucose level after administration ([3]; 30 min, listed as Solution of validamycin): 9.5 mmol/L and 15.7 mmol/L; Blood glucose level after administration ([3]; 60 min, listed as Solution of validamycin): 9.6 mmol/L and 16.1 mmol/L; Blood glucose level after administration ([3]; 120 min, listed as Solution of validamycin): 9.1 mmol/L and 14.8 mmol/L; Blood glucose level before administration ([3]; listed as Solution of validamycin): 9.3 mmol/L and 15.5 mmol/L
